Test results taken from US20140045832A1, “Insulin-Like Growth Factor-1 Receptor Inhibitors” (PIRAMAL ENTERPRISES LIMITED, priority 2011, published 2014).

Target: T1, human IGF-1R (Homo sapiens, UniProt P08069)
T1 construct: IGFRK and IRK enzyme used for the assay was intracellular kinase domain of human IGF-1R and human IR; made in house
Test: In vitro IGF-1R kinase assay (HTRF)
Type: biochemical
Conditions: intracellular kinase domain GST fusion, ATP 20 μM, 1 hour at 23° C., read-out: IGFIR-Activity
Method: The in vitro kinase assays using IGF-1R and IR kinase GST fusion proteins were conducted using a homogeneous time-resolved fluorescence (HTRF) format. […] The standard enzyme reaction buffer consisted of 50 mM Tris HCL (pH: 7.4), 1 mM EGTA, 10 mM MgCl2, 2 mM DTT, 0.01% Tween-20, IGF-1R/IR kinase enzyme, poly GT peptide substrate (Perkin Elmer [Ulight Glu-Tyr (4:1)]n) and ATP [concentration equivalent to Kmapp]. […] Briefly, 2.5 μL enzyme and 2.5 μL inhibitor was pre-incubated for 10 minutes at 23° C. followed by the addition of 2.5 μL of poly GT substrate (final concentration of 50 nM). Reaction was initiated with the addition of 2.5 μL of ATP (final concentration of 20 μM for IGF-1R assay and 10 μM for IR assay). After 1 hour incubation at 23° C., the kinase reaction was stopped with the addition of 5 μL EDTA (final concentration of 10 mM in 20 μL). Europium cryptate—labeled antiphosphotyrosine antibody PY20 (5 μL) was added (final concentration of 2 nM) and the mixture was allowed to equilibrate for 1 hour at 23° C. followed by reading the plate in an Envision plate reader. The intensity of light emission at 665 nm was directly proportional to the level of substrate phosphorylation. The IC50 values for inhibitors were determined by a four-parameter sigmoidal curve fit (Sigma plot or Graph pad).
IGFRK and IRK enzyme used for the assay was intracellular kinase domain of human IGF-1R and human IR cloned and expressed as GST fusion proteins using the baculovirus expression system and purified using glutathione—Sepharose column.

T1 sequence (P08069 999-1274 limits assumed): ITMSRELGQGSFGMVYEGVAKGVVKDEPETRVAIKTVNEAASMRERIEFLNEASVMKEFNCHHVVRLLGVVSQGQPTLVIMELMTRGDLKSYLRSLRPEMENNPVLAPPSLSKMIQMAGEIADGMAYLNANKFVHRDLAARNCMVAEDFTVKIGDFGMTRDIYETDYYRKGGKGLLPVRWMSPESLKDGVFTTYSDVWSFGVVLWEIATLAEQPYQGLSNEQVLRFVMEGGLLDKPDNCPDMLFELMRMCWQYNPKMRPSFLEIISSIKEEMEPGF

Compound | IC50 [nM]
NC(=O)c1[nH]c2c(NC3CCCC3)cc(Cl)cc2c1S(=O)(=O)N1CCO[C@H](COc2ccccc2)C1 [Compound 24, (S)-5-chloro-7-(cyclopentylamino)-3-(2-(phenoxymethyl)morpholinosulfonyl)-1H-indole-2-carboxamide] | > 100
CC(C)(CC(=O)Nc1cc(Cl)cc2c(S(=O)(=O)N3CCO[C@H](COc4ccccc4)C3)c(C(N)=O)[nH]c12)C(=O)O [Compound 10, (S)-4-(2-carbamoyl-5-chloro-3-(2-(phenoxymethyl)morpholinosulfonyl)-1H-indol-7-ylamino)-2,2-dimethyl-4-oxobutanoic acid] | 29.9
NC(=O)c1[nH]c2c(NCCC(=O)O)cc(Cl)cc2c1S(=O)(=O)N1CCO[C@H](COc2ccccc2)C1 [Compound 16, (S)-3-(2-carbamoyl-5-chloro-3-(2-(phenoxymethyl)morpholinosulfonyl)-1H-indol-7-ylamino)propanoic acid] | 2.6
NC(=O)c1[nH]c2c(NC(=O)CCCC(=O)N3CCOCC3)cc(Cl)cc2c1S(=O)(=O)N1CCO[C@H](COc2ccccc2)C1 [Compound 13, (S)-5-chloro-7-(5-morpholino-5-oxopentanamido)-3-(2-(phenoxymethyl)morpholinosulfonyl)-1H-indole-2-carboxamide] | 7.6
CCOC(=O)CCCC(=O)Nc1cc(Cl)cc2c(S(=O)(=O)N3CCO[C@H](COc4ccccc4)C3)c(C(N)=O)[nH]c12 [Compound 15, (S)-ethyl 5-(2-carbamoyl-5-chloro-3-(2-(phenoxymethyl)morpholinosulfonyl)-1H-indol-7-ylamino)-5-oxopentanoate] | < 100
NC(=O)c1[nH]c2c(NC(=O)CCC(=O)O)cc(Cl)cc2c1S(=O)(=O)N1CCO[C@H](COc2ccccc2)C1 [Compound 8, (S)-4-(2-carbamoyl-5-chloro-3-(2-(phenoxymethyl)morpholinosulfonyl)-1H-indol-7-ylamino)-4-oxobutanoic acid] | 6.6
CC(C)CN1CCC(Nc2cc(Cl)cc3c(S(=O)(=O)N4CCO[C@H](COc5ccccc5)C4)c(C(N)=O)[nH]c23)CC1 [Compound 31, (S)-5-chloro-7-(1-isobutylpiperidin-4-ylamino)-3-(2-(phenoxymethyl)morpholinosulfonyl)-1H-indole-2-carboxamide] | 39
NC(=O)c1[nH]c2c(NCC3CCCCC3)cc(Cl)cc2c1S(=O)(=O)N1CCO[C@H](COc2ccccc2)C1 [Compound 22, (S)-5-chloro-7-(cyclohexylmethylamino)-3-(2-(phenoxymethyl)morpholinosulfonyl)-1H-indole-2-carboxamide] | > 100
NC(=O)c1[nH]c2c(NC3CCNCC3)cc(Cl)cc2c1S(=O)(=O)N1CCO[C@H](COc2ccccc2)C1 [Compound 36, (S)-5-chloro-3-(2-(phenoxymethyl)morpholinosulfonyl)-7-(piperidin-4-ylamino)-1H-indole-2-carboxamide] | 22
NC(=O)c1[nH]c2c(NCc3ccc(C(=O)O)cc3)cc(Cl)cc2c1S(=O)(=O)N1CCO[C@H](COc2ccccc2)C1 [Compound 26, (S)-4-((2-carbamoyl-5-chloro-3-(2-(phenoxymethyl)morpholinosulfonyl)-1H-indol-7-ylamino)methyl)benzoic acid] | < 100
NC(=O)c1[nH]c2c(NC(=O)CCCC(=O)O)cc(Cl)cc2c1S(=O)(=O)N1CCO[C@H](COc2ccccc2)C1 [Compound 11, (S)-5-(2-carbamoyl-5-chloro-3-(2-(phenoxymethyl)morpholinosulfonyl)-1H-indol-7-ylamino)-5-oxopentanoic acid] | 10
CC(C)(C)NC(=O)N1CCC(Nc2cc(Cl)cc3c(S(=O)(=O)N4CCO[C@H](COc5ccccc5)C4)c(C(N)=O)[nH]c23)CC1 [Compound 27, (S)-7-(1-(tert-butylcarbamoyl)piperidin-4-ylamino)-5-chloro-3-(2-(phenoxymethyl)morpholinosulfonyl)-1H-indole-2-carboxamide] | 9.8

Other lines, results leading:

IC50 [nM] | Compound
> 100 | N#CCC(=O)Nc1cc(Cl)cc2c(S(=O)(=O)N3CCO[C@H](COc4ccccc4)C3)c(C(N)=O)[nH]c12 [Compound 14, (S)-5-chloro-7-(2-cyanoacetamido)-3-(2-(phenoxymethyl)morpholinosulfonyl)-1H-indole-2-carboxamide]
1.3 | NC(=O)c1[nH]c2c(NC(=S)Nc3ccccc3)cc(Cl)cc2c1S(=O)(=O)N1CCO[C@H](COc2ccccc2)C1 [Compound 35, (S)-5-chloro-3-(2-(phenoxymethyl)morpholinosulfonyl)-7-(3-phenylthioureido)-1H-indole-2-carboxamide]
< 100 | CCOC(=O)N1CCC(Nc2cc(F)cc3c(S(=O)(=O)N4CCO[C@H](COc5ccccc5)C4)c(C(N)=O)[nH]c23)CC1 [Compound 33, (S)-ethyl 4-(2-carbamoyl-5-fluoro-3-(2-(phenoxymethyl)morpholinosulfonyl)-1H-indol-7-ylamino)piperidine-1-carboxylate]
11.5 | NC(=O)CCNc1cc(Cl)cc2c(S(=O)(=O)N3CCO[C@H](COc4ccccc4)C3)c(C(N)=O)[nH]c12 [Compound 17, (S)-7-(3-amino-3-oxopropylamino)-5-chloro-3-(2-(phenoxymethyl)morpholinosulfonyl)-1H-indole-2-carboxamide]
55.8 | CC(C)(CC(=O)O)CC(=O)Nc1cc(Cl)cc2c(S(=O)(=O)N3CCO[C@H](COc4ccccc4)C3)c(C(N)=O)[nH]c12 [Compound 9, (S)-5-(2-carbamoyl-5-chloro-3-(2-(phenoxymethyl)morpholinosulfonyl)-1H-indol-7-ylamino)-3,3-dimethyl-5-oxopentanoic acid]
> 100 | NC(=O)c1[nH]c2c(NCC3(N)CCCC3)cc(Cl)cc2c1S(=O)(=O)N1CCO[C@H](COc2ccccc2)C1 [Compound 25, (S)-7-((1-aminocyclopentyl)methylamino)-5-chloro-3-(2-(phenoxymethyl)morpholinosulfonyl)-1H-indole-2-carboxamide]
48.7 | NC(=O)c1[nH]c2c(NC3CCNC3)cc(Cl)cc2c1S(=O)(=O)N1CCO[C@H](COc2ccccc2)C1 (stereo partly drawn) [Compound 32, 5-chloro-3-((S)-2-(phenoxymethyl)morpholinosulfonyl)-7-(pyrrolidin-3-ylamino)-1H-indole-2-carboxamide]
32.9 | NC(=O)c1[nH]c2c(NC3CCN(C(=O)NCC4CCCCC4)CC3)cc(Cl)cc2c1S(=O)(=O)N1CCO[C@H](COc2ccccc2)C1 [Compound 29, (S)-5-chloro-7-(1-(cyclohexylmethylcarbamoyl)piperidin-4-ylamino)-3-(2-(phenoxymethyl)morpholinosulfonyl)-1H-indole-2-carboxamide]
> 100 | NC(=O)c1[nH]c2c(NC3CCCCC3)cc(Cl)cc2c1S(=O)(=O)N1CCO[C@H](COc2ccccc2)C1 [Compound 21, (S)-5-chloro-7-(cyclohexylamino)-3-(2-(phenoxymethyl)morpholinosulfonyl)-1H-indole-2-carboxamide]
> 100 | NC(=O)c1[nH]c2c(NCc3ccc(F)cc3)cc(Cl)cc2c1S(=O)(=O)N1CCO[C@H](COc2ccccc2)C1 [Compound 30, (S)-5-chloro-7-(4-fluorobenzylamino)-3-(2-(phenoxymethyl)morpholinosulfonyl)-1H-indole-2-carboxamide]
> 100 | CCOC(=O)CCCNc1cc(Cl)cc2c(S(=O)(=O)N3CCO[C@H](COc4ccccc4)C3)c(C(N)=O)[nH]c12 [Compound 18, (S)-ethyl 4-(2-carbamoyl-5-chloro-3-(2-(phenoxymethyl)morpholinosulfonyl)-1H-indol-7-ylamino)butanoate]

Target: T2, CYP3A4 (Homo sapiens, UniProt P08684)
T2 construct: purchased Invitrogen (Vivid screening kits)
T2 sequence (P08684 whole entry): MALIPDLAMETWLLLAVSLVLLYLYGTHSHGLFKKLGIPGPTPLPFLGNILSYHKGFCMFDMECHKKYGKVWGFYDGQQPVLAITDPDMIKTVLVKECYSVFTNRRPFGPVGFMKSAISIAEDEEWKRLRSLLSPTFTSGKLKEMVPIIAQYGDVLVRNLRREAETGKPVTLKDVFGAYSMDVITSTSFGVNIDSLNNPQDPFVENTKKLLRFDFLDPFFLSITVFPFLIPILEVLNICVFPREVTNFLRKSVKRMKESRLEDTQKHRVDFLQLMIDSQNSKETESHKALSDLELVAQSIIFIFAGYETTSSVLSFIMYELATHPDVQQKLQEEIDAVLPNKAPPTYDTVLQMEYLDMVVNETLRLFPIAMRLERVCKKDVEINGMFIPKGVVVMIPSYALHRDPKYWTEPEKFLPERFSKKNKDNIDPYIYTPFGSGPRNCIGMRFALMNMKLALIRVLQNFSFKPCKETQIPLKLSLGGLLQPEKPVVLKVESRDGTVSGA
Test: CYP inhibition fluorescence assay (rhCYP450, Vivid Invitrogen kit)
Type: in vitro ADME
Conditions: recombinant human CYP3A4, 10 μM compound, read-out: % inhibition of CYP 3A4 at 10 μM
Method: The % inhibition @ 10 μM data was generated from an rhCYP450/fluorescence assay according to the Vivid Invitrogen screening kits. The compounds were screened against CYP 3A4 isoform because CYP3A4 is responsible for the metabolism of approximately 50-60% of clinical drugs. The lower the percentage inhibition, the lower the CYP450 inhibitory liability of that specific compound.

Compound | inhibition at 10 µM [%]
NC(=O)c1[nH]c2c(NC(=S)Nc3ccccc3)cc(Cl)cc2c1S(=O)(=O)N1CCO[C@H](COc2ccccc2)C1 [Compound 35, (S)-5-chloro-3-(2-(phenoxymethyl)morpholinosulfonyl)-7-(3-phenylthioureido)-1H-indole-2-carboxamide] | < 40
NC(=O)c1[nH]c2c(NC(=O)CCCC(=O)N3CCOCC3)cc(Cl)cc2c1S(=O)(=O)N1CCO[C@H](COc2ccccc2)C1 [Compound 13, (S)-5-chloro-7-(5-morpholino-5-oxopentanamido)-3-(2-(phenoxymethyl)morpholinosulfonyl)-1H-indole-2-carboxamide] | 46
NC(=O)c1[nH]c2c(NC(=O)CCC(=O)O)cc(Cl)cc2c1S(=O)(=O)N1CCO[C@H](COc2ccccc2)C1 [Compound 8, (S)-4-(2-carbamoyl-5-chloro-3-(2-(phenoxymethyl)morpholinosulfonyl)-1H-indol-7-ylamino)-4-oxobutanoic acid] | 0
NC(=O)c1[nH]c2c(NC(=O)CCCC(=O)O)cc(Cl)cc2c1S(=O)(=O)N1CCO[C@H](COc2ccccc2)C1 [Compound 11, (S)-5-(2-carbamoyl-5-chloro-3-(2-(phenoxymethyl)morpholinosulfonyl)-1H-indol-7-ylamino)-5-oxopentanoic acid] | 15
